In patent US20080096807A1, “Cyclic vasoactive intestinal peptide receptor-2 agonists” (priority 2006, published 2008):
Like-named read-outs stand apart in the source and are kept apart here. Bridge positions count the residues as written; N and C are the ends. Square brackets hold non-standard residues; d marks the D form. Peptide text beside a SMILES is read from it. ξ: configuration not given here. Thr(3ξ) = CC(O)[C@H](N)C(=O)O; Nle = CCCC[C@H](N)C(=O)O

How the values were obtained:
[1] = molecular target: T1, human neutrophil elastase (Homo sapiens, UniProt P08246); test: Peptide stability to neutrophil elastase (RP HPLC ESI MS); conditions: halftime with human neutrophil elastase 1 to 2 μg/mL in PBS, ambient temperature, normalized to halftime of the reference standard
T1 sequence (P08246 30-247 limits assumed): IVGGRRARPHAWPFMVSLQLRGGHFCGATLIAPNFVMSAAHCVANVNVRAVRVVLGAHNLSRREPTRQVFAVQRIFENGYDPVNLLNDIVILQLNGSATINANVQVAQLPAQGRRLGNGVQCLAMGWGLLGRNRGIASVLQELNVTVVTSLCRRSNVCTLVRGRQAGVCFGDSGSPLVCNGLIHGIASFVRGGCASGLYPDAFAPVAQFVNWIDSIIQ
Method: The proteolytic stabilities of peptide analogs were established with reversed phase high pressure liquid chromatography (RP HPLC) electrospray ionization mass spectrometry (ESI MS). Peptide analogs were incubated with human neutrophile elastase and the quantity of undigested analogs was determined by ESI MS at appropriate time points. Multiple peptide analogs could be included in one experiment as long as they could be differentiated by HPLC retention time and/or by molecular weight. Ac-His Ac-[sequence]Nle-[sequence]NH2 was used in all experiments as a control and as a reference standard. The simultaneous use of multiple peptide analogs together with a reference standard allowed for compensation for variations in the proteolytic fidelity of the enzyme over the multiple experiments. Integrated ion currents obtained for the individual undigested peptide were used for quantitation. For calculation of halftime first-order kinetic behavior was assumed and all calculations were normalized to the halftime of the reference standard.
Peptide stock solutions were prepared in water to a concentration of 2.5 mg/mL. Unless in use, all stock solutions were kept at −20° C. […] Concentrations of the peptide analogs were adjusted accordingly. In order to do the proteolytic digestion, peptides were dissolved in phosphate buffered saline (PBS) to a concentration of 0.1 mg/mL. As many as six different peptide analogs were mixed into one 50 μL reaction volume. The reference standard was added to all experiments as a reference and internal standard. Elastase (Human Neutrophil, Calbiochem, Cat # 324681) was added from an elastase stock solution to a concentration of 1 to 2 μg/mL. Different amounts of the enzyme were chosen to compensate for the differences in the proteolytic stabilities of the peptide analogs. Previously, a stock solution of elastase was prepared in water at a concentration of 1 mg/mL. Small aliquots of the enzyme stock solution were kept at −20° C. to better maintain the enzyme activity by limiting the number of thaw and freeze cycles.
The digestion was done at ambient temperature in an autosampler tube within the autosampler of the HPLC system (Agilent 1100 Series). For a time course, 5 μL aliquots were injected in 70 minute intervals onto the reversed phase HPLC column (Phenomenex, Luna C18, 3μ, 100 ↑, 150×2.00 mm). For the starting time point an aliquot was injected just prior to the addition of the proteolytic enzyme. A total of eight time points could be recorded from one experiment, including the starting point. Peptides were separated on the reversed phase column with a 50 minute gradient of 5% to 30% organic phase. The aqueous phase was 0.05% (v/v) of trifluoroacetic acid in water and the organic one was 0.045% (v/v) of trifluoroacetic acid in acetonitrile. Absorbances were recorded at 214 and 280 nm respectively. All of the column effluent was introduced into the turbo V source of the electrospray ionization mass spectrometer (ABI 4000 QTrap LC/MS/MS System). Mass spectra were acquired in Q3MS mode in a mass range to include all triply charged ions of the non degraded peptide analogs. Care was taken to assure that peptide analogs could clearly be differentiated either by the chromatographic retention time or by the difference in molecular weight. Relative quantities of the respective undigested peptide analog were calculated from the integrated total ion current. A window of 2.5 Da was chosen and the manufacturer's software was used to integrate the individual ion currents. The overall halftime of an individual peptide analog was calculated by assuming first-order kinetic behavior and was normalized with respect to the halftime of the reference standard.

VPAC2 receptor = molecular target: T2, VPAC2 receptor (Homo sapiens, UniProt P41587); test: Sup-T1 cAMP agonist assay; assay type: cell-based
T2 construct: The human T-lymphoid cell line Sup-Ti, which expresses the VPAC2 receptor; host or cells: Sup-T1 (Sup-Ti [sic]) human T-lymphoid cell line
T2 sequence (P41587 24-438): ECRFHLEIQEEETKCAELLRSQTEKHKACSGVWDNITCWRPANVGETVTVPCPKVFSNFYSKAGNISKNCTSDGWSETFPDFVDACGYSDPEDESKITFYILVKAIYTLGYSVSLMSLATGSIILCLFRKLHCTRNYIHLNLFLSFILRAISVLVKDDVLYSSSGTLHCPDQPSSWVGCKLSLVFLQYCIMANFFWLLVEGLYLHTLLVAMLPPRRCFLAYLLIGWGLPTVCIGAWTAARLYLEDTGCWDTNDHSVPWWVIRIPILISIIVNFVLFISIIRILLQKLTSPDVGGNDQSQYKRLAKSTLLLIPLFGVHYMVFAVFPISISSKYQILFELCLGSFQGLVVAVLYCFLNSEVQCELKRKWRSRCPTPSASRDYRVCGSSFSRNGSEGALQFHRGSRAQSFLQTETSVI
Method: The human T-lymphoid cell line Sup-Ti, which expresses the VPAC2 receptor, was obtained from the American Type Culture Collection (ATCC, CRL-1942) and maintained in growth medium at densities between 0.2 and 2×10^6 cells/ml in a 37° C. CO2 incubator. The growth medium was RPMI 1640 (Invitrogen) supplemented with 25 mM HEPES buffer and 10% fetal bovine serum (Gemini Bioproducts).
To evaluate VPAC2 agonist compound activity, cells in log-phase growth were washed once with growth medium at room temperature and plated into 96-well plates at a density of 4×10^4 cells per well in 150 uL of growth medium. Fifty uL of the compounds to be tested, prepared at appropriate concentrations in growth medium, were then added to designated wells. After 5 min at room temperature, the cells were lysed by adding 25 uL of lysis reagent 1A (cAMP Biotrak EIA system, Amersham Biosciences, RPN225) to each well. The 96-well plates were kept at room temperature for 10 min with shaking and then stored at 4° C. until analysis for cAMP (within 2 hr).
Cyclic AMP levels were determined in 100 uL of each lysate using the cAMP Biotrak Enzymeimmunoassay (EIA) kit according to the manufacture's instructions (Amersham Biosciences, RPN225). The activity of each VPAC2 agonist compound (EC50 value) was estimated by fitting the 7-concentration dose response data to a sigmoidal dose-response equation provided by the GraphPad Prism program (GraphPad Software, Inc.).

[2] = human T-lymphoid cell line Sup-T1 expressing VPAC2 receptor, cAMP EIA, 5 min at room temperature, read-out: Sup-T1 cAMP EC50

Relative elastase stability [1] | EC50 (VPAC2 receptor; [2]) [nM] | Compound | EC50 (VPAC2 receptor) [nM]
4.9 | 1210 | CCCC[C@H](NC(=O)[C@H](CCC(N)=O)NC(=O)[C@H](CCCCN)NC(=O)[C@H](CCCNC(=N)N)NC(=O)[C@H](CC(C)C)NC(=O)[C@H](CCCCN)NC(=O)[C@@H](NC(=O)[C@H](Cc1ccc(O)cc1)NC(=O)[C@H](CC(N)=O)NC(=O)[C@H](CCC(=O)O)NC(=O)[C@@H](NC(=O)[C@H](Cc1ccccc1)NC(=O)[C@@H]1CCCN1C(=O)[C@H](C)NC(=O)[C@H](CC(=O)O)NC(=O)[C@H](CO)NC(=O)[C@H](Cc1c[nH]cn1)NC(C)=O)C(C)O)C(C)O)C(=O)N[C@@H](C)C(=O)N[C@@H](C)C(=O)N[C@@H](CCCCN)C(=O)N[C@H]1CCCCNC(=O)C[C@@H](C(=O)N[C@@H](CC(C)C)C(=O)N[C@@H](CCCCN)C(=O)N[C@@H](CCCCN)C(=O)NCC(=O)NCC(=O)N[C@H](C(N)=O)C(C)O)NC(=O)[C@H](CC(N)=O)NC(=O)[C@H](CC(C)C)NC(=O)[C@H](Cc2ccc(O)cc2)NC1=O (stereo partly shown) [Example 5] (Ac-HSDAPF[Thr(3ξ)]ENY[Thr(3ξ)]KLRKQ[Nle]AAKKYLNDLKKGG[Thr(3ξ)]-NH2; lactam 21-25) | –
4.4 | 1030 | CCCC[C@H](NC(=O)[C@H](CCCNC(=N)N)NC(=O)[C@H](CCCCN)NC(=O)[C@H](CCCNC(=N)N)NC(=O)[C@H](CC(C)C)NC(=O)[C@H](CCCCN)NC(=O)[C@@H](NC(=O)[C@H](Cc1ccc(O)cc1)NC(=O)[C@H](CC(N)=O)NC(=O)[C@H](CCC(=O)O)NC(=O)[C@@H](NC(=O)[C@H](Cc1ccccc1)NC(=O)[C@H](CO)NC(=O)[C@H](C)NC(=O)[C@H](CC(=O)O)NC(=O)[C@H](CO)NC(=O)[C@H](Cc1c[nH]cn1)NC(C)=O)C(C)O)C(C)O)C(=O)N[C@@H](CCCCN)C(=O)N[C@@H](C)C(=O)N[C@@H](CCCCN)C(=O)N[C@H]1CCCCNC(=O)C[C@@H](C(=O)N[C@@H](CC(C)C)C(=O)N[C@@H](CCCCN)C(=O)N[C@@H](CCCCN)C(=O)NCC(=O)NCC(=O)N[C@H](C(N)=O)C(C)O)NC(=O)[C@H](CC(N)=O)NC(=O)[C@H](CC(C)C)NC(=O)[C@H](Cc2ccc(O)cc2)NC1=O (stereo partly shown) [Example 16] (Ac-HSDASF[Thr(3ξ)]ENY[Thr(3ξ)]KLRKR[Nle]KAKKYLNDLKKGG[Thr(3ξ)]-NH2; lactam 21-25) | –
4.5 | 98 | CCCC[C@H](NC(=O)[C@H](CCC(N)=O)NC(=O)[C@H](CCCCN)NC(=O)[C@H](CCCNC(=N)N)NC(=O)[C@H](CC(C)C)NC(=O)[C@H](CCCCN)NC(=O)[C@@H](NC(=O)[C@H](Cc1ccc(O)cc1)NC(=O)[C@H](CC(N)=O)NC(=O)[C@H](CCC(=O)O)NC(=O)[C@@H](NC(=O)[C@H](Cc1ccccc1)NC(=O)[C@H](CC(=O)O)NC(=O)[C@H](C)NC(=O)[C@H](CC(=O)O)NC(=O)[C@H](CO)NC(=O)[C@H](Cc1c[nH]cn1)NC(C)=O)C(C)O)C(C)O)C(=O)N[C@@H](C)C(=O)N[C@@H](C)C(=O)N[C@@H](CCCCN)C(=O)N[C@H]1CCCCNC(=O)C[C@@H](C(=O)N[C@@H](CC(C)C)C(=O)N[C@@H](CCCCN)C(=O)N[C@@H](CCCCN)C(=O)NCC(=O)NCC(=O)N[C@H](C(N)=O)C(C)O)NC(=O)[C@H](CC(N)=O)NC(=O)[C@H](CC(C)C)NC(=O)[C@H](Cc2ccc(O)cc2)NC1=O (stereo partly shown) [Example 3] (Ac-HSDADF[Thr(3ξ)]ENY[Thr(3ξ)]KLRKQ[Nle]AAKKYLNDLKKGG[Thr(3ξ)]-NH2; lactam 21-25) | –
3.9 | 85 | CCCC[C@H](NC(=O)[C@H](CCC(N)=O)NC(=O)[C@H](CCCCN)NC(=O)[C@H](CCCNC(=N)N)NC(=O)[C@H](CC(C)C)NC(=O)[C@H](CCCCN)NC(=O)[C@@H](NC(=O)[C@H](Cc1ccc(O)cc1)NC(=O)[C@H](CC(N)=O)NC(=O)[C@H](CCC(=O)O)NC(=O)[C@@H](NC(=O)[C@H](Cc1ccccc1)NC(=O)[C@H](CCC(N)=O)NC(=O)[C@H](C)NC(=O)[C@H](CC(=O)O)NC(=O)[C@H](CO)NC(=O)[C@H](Cc1c[nH]cn1)NC(C)=O)C(C)O)C(C)O)C(=O)N[C@@H](C)C(=O)N[C@@H](C)C(=O)N[C@@H](CCCCN)C(=O)N[C@H]1CCCCNC(=O)C[C@@H](C(=O)N[C@@H](CC(C)C)C(=O)N[C@@H](CCCCN)C(=O)N[C@@H](CCCCN)C(=O)NCC(=O)NCC(=O)N[C@H](C(N)=O)C(C)O)NC(=O)[C@H](CC(N)=O)NC(=O)[C@H](CC(C)C)NC(=O)[C@H](Cc2ccc(O)cc2)NC1=O (stereo partly shown) [Example 4] (Ac-HSDAQF[Thr(3ξ)]ENY[Thr(3ξ)]KLRKQ[Nle]AAKKYLNDLKKGG[Thr(3ξ)]-NH2; lactam 21-25) | –

Compound | Relative elastase stability [1] | EC50 (VPAC2 receptor; [2]) [nM] | EC50 (VPAC2 receptor) [nM]
CCCC[C@H](NC(=O)[C@H](CCCNC(=N)N)NC(=O)[C@H](CCCCN)NC(=O)[C@H](CCCNC(=N)N)NC(=O)[C@H](CC(C)C)NC(=O)[C@H](CCCCN)NC(=O)[C@@H](NC(=O)[C@H](Cc1ccc(O)cc1)NC(=O)[C@H](CC(N)=O)NC(=O)[C@H](CCC(=O)O)NC(=O)[C@@H](NC(=O)[C@H](Cc1ccccc1)NC(=O)[C@H](CO)NC(=O)[C@H](C)NC(=O)[C@H](CC(=O)O)NC(=O)[C@H](CO)NC(=O)[C@H](Cc1c[nH]cn1)NC(C)=O)[C@@H](C)O)[C@@H](C)O)C(=O)N[C@@H](C)C(=O)N[C@@H](C)C(=O)N[C@@H](CCCCN)C(=O)N[C@H]1CCCCNC(=O)C[C@@H](C(=O)N[C@@H](CC(C)C)C(=O)N[C@@H](CC(C)C)C(=O)N[C@@H](CC(N)=O)C(=O)NCC(=O)NCC(=O)N[C@H](C(N)=O)[C@@H](C)O)NC(=O)[C@H](CC(N)=O)NC(=O)[C@H](CC(C)C)NC(=O)[C@H](Cc2ccc(O)cc2)NC1=O [Example 14] (Ac-HSDASFTENYTKLRKR[Nle]AAKKYLNDLLNGGT-NH2; lactam 21-25) | 4.5 | – | 94.1
